Experimental data from US20080009418A1, “Selective Inhibitors” (Alchemia LTD., priority 2004, published 2008).

Key:
Human δ-opioid (DOP) = molecular target: T1, Human δ-opioid (DOP) (Homo sapiens, UniProt P41143); assay: Radioligand binding, human δ-opioid (DOP) membranes, FlashPlate, [3H]-Bremazocine; conditions: compound at 10 μM, [3H]-Bremazocine
T1 construct: purchased Perkin Elmer Biosignal
Protocol: (§1) Cloned receptor membrane preparations from Perkin Elmer Biosignal™ were used in radioligand binding assays.
(§2) A1 Human δ-opioid (DOP), A2 Human κ-Opioid (KOP), A3 Human Melanocortin (MC3), A4 Human Melanocortin (MC4), A5 Human melanocortin (MC5), A6 Human melanin-concentrating hormone (MCH1), A7 Human μ-opioid (MOP), A8 Human neurokinin (NK1), A9 Human neuropeptide Y (NPY-Y1), A10 Human opioid (ORL1) A11 Mouse urotensin (mUR2)
(§3) Screening experiments were performed in either a 50 μl filtration or 25 μl FlashPlate assay format using the following protocol:
(§4) 19.5 μl buffer, 0.5 μl of compound diluted in DMSO, 5 μl of radioligand diluted in binding buffer.
(§5) The day prior to performing the experiment 50 μl DMSO was added to each well of the compound plates to yield compounds at a final concentration of 10 mM. Daughter plates were then created by diluting the compounds further in DMSO to a concentration of 0.5 mM. The mother plates were frozen immediately.
(§6) Immobilize membranes into FlashPlate microplates using PerkinElmer BioSignal's proprietary coating procedure. Dilute radioligand to 5× the final concentration in binding buffer. Add 19.5 μl buffer to each well of the FlashPlate. Add 0.5 μl of DMSO (total value, 5 wells), reference ligand (non-specific value, 3 wells) or compound to the corresponding wells in the FlashPlate microplate. Initiate the reaction by adding 5 μl of radioligand to each well. Apply TopSeal-A onto FlashPlate microplates. Incubate at room temperature for 1 hour in the dark. Count for 30 seconds per well on TopCount Microplate Scintillation and Luminescence Counter (PerkinElmer) using a count delay of 60 seconds.
(§7) Percentage inhibition was calculated using the following formula: [formula]

Human κ-Opioid (KOP) = molecular target: T2, Human κ-Opioid (KOP) (Homo sapiens, UniProt P41145); assay: Radioligand binding, human κ-opioid (KOP) membranes, filtration, [3H]-Diprenorphine; conditions: compound at 10 μM, [3H]-Diprenorphine
T2 construct: purchased Perkin Elmer Biosignal
T2 sequence (P41145 whole entry): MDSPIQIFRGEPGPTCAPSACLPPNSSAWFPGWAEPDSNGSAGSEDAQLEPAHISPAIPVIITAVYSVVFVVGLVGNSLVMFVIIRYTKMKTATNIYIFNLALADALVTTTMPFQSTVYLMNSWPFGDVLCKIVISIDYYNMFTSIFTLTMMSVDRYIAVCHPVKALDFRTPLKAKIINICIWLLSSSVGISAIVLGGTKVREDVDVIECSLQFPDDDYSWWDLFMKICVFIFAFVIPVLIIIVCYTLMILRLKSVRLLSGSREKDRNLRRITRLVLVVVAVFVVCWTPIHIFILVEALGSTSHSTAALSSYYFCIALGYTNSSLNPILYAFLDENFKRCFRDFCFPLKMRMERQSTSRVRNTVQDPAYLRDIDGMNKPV
Protocol: as §1, §2, §3
(§8) 44 μl membranes diluted in buffer, 1 μl of compound diluted in DMSO, 5 μl of radioligand diluted in binding buffer.
as §5
(§9) Thaw membranes on ice then dilute membranes in binding buffer at a concentration of 1 Unit per well. Dilute radio-ligand to 10 times the final concentration in binding buffer. Add 44 μl of diluted membranes to each well of the deep-well plate. Add 1 μl of DMSO (total value, 5 wells), reference ligand (non-specific value, 3 wells) or compound to the corresponding wells in the deep-well plate. Initiate the reaction by adding 5 μl of radioligand to each well and vortex gently. Incubate at room temperature for 1 hour. During incubation, pre-incubate the Multiscreen Harvest plates in 0.3% PEI. Filter over pre-soaked Multiscreen Harvest plates using a Tomtec Harvester. Wash 9 times with 500 μl of cold 50 mM Tris-HCl pH 7.4 at 4° C. and air-dry for 30 minutes at room temperature under a fume hood. Apply a bottom seal to the Multiscreen Harvest plates. Add 25 μl of MicroScint-0 to each well. Apply TopSeal-A to the plate. Count for 30 seconds per well on TopCount Microplate Scintillation and Luminescence Counter (PerkinElmer) using a count delay of 60 seconds.
as §7

Human Melanocortin (MC3) = molecular target: T3, Human Melanocortin (MC3) (Homo sapiens, UniProt P41968); assay: Radioligand binding, human melanocortin MC3 membranes, FlashPlate, [125I]-NDP-αMSH; conditions: compound at 10 μM, [125I]-NDP-αMSH
T3 construct: purchased Perkin Elmer Biosignal
T3 sequence (P41968 whole entry): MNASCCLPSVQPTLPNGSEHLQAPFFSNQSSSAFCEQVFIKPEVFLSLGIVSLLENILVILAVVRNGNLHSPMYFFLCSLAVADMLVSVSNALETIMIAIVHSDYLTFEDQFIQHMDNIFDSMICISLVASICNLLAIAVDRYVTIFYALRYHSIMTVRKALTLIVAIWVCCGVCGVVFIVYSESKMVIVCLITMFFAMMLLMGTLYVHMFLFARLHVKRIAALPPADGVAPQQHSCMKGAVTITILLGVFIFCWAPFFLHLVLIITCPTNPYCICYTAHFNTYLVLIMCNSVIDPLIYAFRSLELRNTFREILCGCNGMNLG
Protocol: as §1, §2, §3, §4, §5, §6, §7

Human Melanocortin (MC4) = molecular target: T4, Human Melanocortin (MC4) (Homo sapiens, UniProt P32245); assay: Radioligand binding, human melanocortin MC4 membranes, FlashPlate, [125I]-NDP-αMSH; conditions: compound at 10 μM, [125I]-NDP-αMSH
T4 construct: purchased Perkin Elmer Biosignal
T4 sequence (P32245 whole entry): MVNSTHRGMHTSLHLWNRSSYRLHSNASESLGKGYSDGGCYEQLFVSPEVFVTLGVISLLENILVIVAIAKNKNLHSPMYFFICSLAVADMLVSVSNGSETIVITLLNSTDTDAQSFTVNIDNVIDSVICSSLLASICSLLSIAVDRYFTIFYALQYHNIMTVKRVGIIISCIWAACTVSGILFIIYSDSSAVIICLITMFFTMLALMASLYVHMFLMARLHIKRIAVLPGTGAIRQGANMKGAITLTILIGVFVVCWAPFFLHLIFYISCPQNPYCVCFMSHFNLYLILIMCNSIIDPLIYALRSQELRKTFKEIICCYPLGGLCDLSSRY
Protocol: as §1, §2, §3, §4, §5, §6, §7

Human melanocortin (MC5) = molecular target: T5, Human melanocortin (MC5) (Homo sapiens, UniProt P33032); assay: Radioligand binding, human melanocortin MC5 membranes, FlashPlate, [125I]-NDP-αMSH; conditions: compound at 10 μM, [125I]-NDP-αMSH
T5 construct: purchased Perkin Elmer Biosignal
T5 sequence (P33032 whole entry): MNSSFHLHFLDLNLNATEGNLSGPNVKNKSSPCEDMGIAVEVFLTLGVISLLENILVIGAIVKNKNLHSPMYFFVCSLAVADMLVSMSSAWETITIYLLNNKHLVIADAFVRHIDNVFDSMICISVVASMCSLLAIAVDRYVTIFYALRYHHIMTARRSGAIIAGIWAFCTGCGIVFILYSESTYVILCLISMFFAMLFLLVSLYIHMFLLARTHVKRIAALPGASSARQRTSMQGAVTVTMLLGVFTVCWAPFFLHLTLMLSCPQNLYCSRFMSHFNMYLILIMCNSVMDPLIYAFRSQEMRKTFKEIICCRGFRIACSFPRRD
Protocol: as §1, §2, §3, §4, §5, §6, §7

[1] = molecular target: T6, Human melanin-concentrating hormone (MCH1) (Homo sapiens, UniProt Q99705); assay: Radioligand binding, human melanin-concentrating hormone MCH1 membranes, FlashPlate, [125I]-S36057; conditions: compound at 10 μM
T6 construct: purchased Perkin Elmer Biosignal
T6 sequence (Q99705 whole entry): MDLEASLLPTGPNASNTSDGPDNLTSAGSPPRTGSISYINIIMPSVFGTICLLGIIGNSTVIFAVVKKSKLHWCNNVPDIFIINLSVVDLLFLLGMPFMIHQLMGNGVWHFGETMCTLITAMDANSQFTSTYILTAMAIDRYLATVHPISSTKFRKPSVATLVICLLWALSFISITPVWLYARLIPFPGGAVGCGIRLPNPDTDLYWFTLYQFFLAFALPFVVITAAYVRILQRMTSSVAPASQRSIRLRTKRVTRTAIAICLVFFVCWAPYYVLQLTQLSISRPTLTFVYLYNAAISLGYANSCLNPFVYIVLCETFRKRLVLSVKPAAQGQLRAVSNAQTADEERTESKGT
Protocol: as §1, §2, §3, §4, §5, §6, §7

Human μ-opioid (MOP) = molecular target: T7, Human μ-opioid (MOP) (Homo sapiens, UniProt P35372); assay: Radioligand binding, human μ-opioid (MOP) membranes, FlashPlate, [3H]-Naloxone; conditions: compound at 10 μM, [3H]-Naloxone
T7 construct: purchased Perkin Elmer Biosignal
T7 sequence (P35372 whole entry): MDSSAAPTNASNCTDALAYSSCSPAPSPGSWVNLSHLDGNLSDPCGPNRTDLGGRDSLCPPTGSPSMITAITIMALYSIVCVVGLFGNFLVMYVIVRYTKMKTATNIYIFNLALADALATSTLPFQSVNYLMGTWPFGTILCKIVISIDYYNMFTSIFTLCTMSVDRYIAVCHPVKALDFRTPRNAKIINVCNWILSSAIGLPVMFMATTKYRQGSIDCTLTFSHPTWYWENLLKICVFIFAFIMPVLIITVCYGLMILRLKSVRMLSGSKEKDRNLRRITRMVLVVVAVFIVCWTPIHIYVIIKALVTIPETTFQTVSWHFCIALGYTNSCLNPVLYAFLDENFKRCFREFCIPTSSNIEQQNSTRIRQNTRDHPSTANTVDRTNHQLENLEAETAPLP
Protocol: as §1, §2, §3, §4, §5, §6, §7

Human neurokinin (NK1) = molecular target: T8, Human neurokinin (NK1) (Homo sapiens, UniProt P25103); assay: Radioligand binding, human neurokinin NK1 membranes, filtration, [125I]-Substance P; conditions: compound at 10 μM, [125I]-Substance P
T8 construct: purchased Perkin Elmer Biosignal
T8 sequence (P25103 whole entry): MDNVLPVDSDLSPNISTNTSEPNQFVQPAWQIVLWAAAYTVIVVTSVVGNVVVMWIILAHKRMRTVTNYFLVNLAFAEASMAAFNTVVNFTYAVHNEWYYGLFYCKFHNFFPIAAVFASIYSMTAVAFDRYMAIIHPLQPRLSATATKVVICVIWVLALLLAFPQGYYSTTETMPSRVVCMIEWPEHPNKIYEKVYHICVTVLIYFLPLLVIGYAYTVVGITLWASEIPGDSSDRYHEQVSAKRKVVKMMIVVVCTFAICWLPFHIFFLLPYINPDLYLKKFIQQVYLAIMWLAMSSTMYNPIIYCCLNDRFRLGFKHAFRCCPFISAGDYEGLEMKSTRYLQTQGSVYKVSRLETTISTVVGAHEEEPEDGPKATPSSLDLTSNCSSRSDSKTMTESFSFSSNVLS
Protocol: as §1, §2, §3, §8, §5, §9, §7

[2] = molecular target: T9, Human neuropeptide Y (NPY-Y1) (Homo sapiens, UniProt P25929); assay: Radioligand binding, human neuropeptide Y NPY-Y1 membranes, FlashPlate, [125I]-PYY; conditions: compound at 10 μM, [125I]-PYY
T9 construct: purchased Perkin Elmer Biosignal
T9 sequence (P25929 1-384): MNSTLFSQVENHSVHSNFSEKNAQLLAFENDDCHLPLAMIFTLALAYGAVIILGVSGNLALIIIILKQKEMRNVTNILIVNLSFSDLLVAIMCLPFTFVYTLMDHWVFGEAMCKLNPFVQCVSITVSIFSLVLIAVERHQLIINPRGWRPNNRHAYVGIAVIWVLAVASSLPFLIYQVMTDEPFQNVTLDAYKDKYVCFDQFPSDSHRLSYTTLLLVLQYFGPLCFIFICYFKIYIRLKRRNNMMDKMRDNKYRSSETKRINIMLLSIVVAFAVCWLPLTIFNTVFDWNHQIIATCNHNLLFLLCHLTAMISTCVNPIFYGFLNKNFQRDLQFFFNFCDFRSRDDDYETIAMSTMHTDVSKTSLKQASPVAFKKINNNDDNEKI
Protocol: as §1, §2, §3, §4, §5, §6, §7

Human opioid (ORL1) = molecular target: T10, Human opioid (ORL1) (Homo sapiens, UniProt P41146); assay: Radioligand binding, human opioid ORL1 membranes, FlashPlate, [125I]-Nociceptin; conditions: compound at 10 μM, [125I]-Nociceptin
T10 construct: purchased Perkin Elmer Biosignal
T10 sequence (P41146 whole entry): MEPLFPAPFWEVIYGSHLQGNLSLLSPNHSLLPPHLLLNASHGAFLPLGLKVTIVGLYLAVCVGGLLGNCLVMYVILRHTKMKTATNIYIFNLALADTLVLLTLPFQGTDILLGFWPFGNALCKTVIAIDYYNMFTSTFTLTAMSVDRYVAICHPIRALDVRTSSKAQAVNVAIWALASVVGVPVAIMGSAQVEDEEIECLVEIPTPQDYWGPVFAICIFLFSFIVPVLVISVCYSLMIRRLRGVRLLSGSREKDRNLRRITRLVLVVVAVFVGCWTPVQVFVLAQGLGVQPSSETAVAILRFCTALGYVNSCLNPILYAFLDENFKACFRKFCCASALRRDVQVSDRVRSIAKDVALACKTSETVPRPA
Protocol: as §1, §2, §3, §4, §5, §6, §7

Mouse urotensin (mUR2) = molecular target: T11, Mouse urotensin (mUR2) (Mus musculus, UniProt Q8VIH9); assay: Radioligand binding, mouse urotensin mUR2 membranes, FlashPlate, [125I]-Urotensin II; conditions: compound at 10 μM, [125I]-Urotensin II
T11 construct: purchased Perkin Elmer Biosignal
T11 sequence (Q8VIH9 1-385): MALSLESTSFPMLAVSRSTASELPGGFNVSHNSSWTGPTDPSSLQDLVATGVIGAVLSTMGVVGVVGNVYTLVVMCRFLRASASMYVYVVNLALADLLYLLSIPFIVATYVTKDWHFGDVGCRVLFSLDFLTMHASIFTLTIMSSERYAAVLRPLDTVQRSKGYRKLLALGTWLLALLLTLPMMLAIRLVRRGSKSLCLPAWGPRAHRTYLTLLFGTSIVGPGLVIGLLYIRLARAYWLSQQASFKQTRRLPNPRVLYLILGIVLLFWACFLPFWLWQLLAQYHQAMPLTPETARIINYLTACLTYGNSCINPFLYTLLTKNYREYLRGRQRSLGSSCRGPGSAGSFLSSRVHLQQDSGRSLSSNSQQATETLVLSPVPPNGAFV
Protocol: as §1, §2, §3, §4, §5, §6, §7

T1 sequence (P41143 whole entry): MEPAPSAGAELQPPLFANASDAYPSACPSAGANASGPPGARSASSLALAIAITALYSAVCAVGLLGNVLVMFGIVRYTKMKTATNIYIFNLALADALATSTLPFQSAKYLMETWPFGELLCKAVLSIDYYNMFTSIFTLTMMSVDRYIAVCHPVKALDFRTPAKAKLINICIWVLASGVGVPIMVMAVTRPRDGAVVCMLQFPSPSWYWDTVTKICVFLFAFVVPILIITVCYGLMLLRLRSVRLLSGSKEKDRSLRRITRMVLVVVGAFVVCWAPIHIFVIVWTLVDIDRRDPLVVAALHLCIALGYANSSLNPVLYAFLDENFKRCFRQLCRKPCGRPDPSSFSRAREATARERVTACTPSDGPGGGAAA

| SMILES | A1: inhibition of radioligand binding (Human δ-opioid (DOP); FlashPlate) | A2: inhibition of radioligand binding (Human κ-Opioid (KOP); filtration) | A3: inhibition of radioligand binding (Human Melanocortin (MC3); FlashPlate) | A4: inhibition of radioligand binding (Human Melanocortin (MC4); FlashPlate) | A5: inhibition of radioligand binding (Human melanocortin (MC5); FlashPlate) | A6: inhibition of radioligand binding ([1]; [125I]-S36057, FlashPlate) | A7: inhibition of radioligand binding (Human μ-opioid (MOP); FlashPlate) | A8: inhibition of radioligand binding (Human neurokinin (NK1); filtration) | A9: inhibition of radioligand binding ([2]; FlashPlate) | A10: inhibition of radioligand binding (Human opioid (ORL1); FlashPlate) | A11: inhibition of radioligand binding (Mouse urotensin (mUR2); FlashPlate) | also measured |
| --- | --- | --- | --- | --- | --- | --- | --- | --- | --- | --- | --- | --- |
| COCC1OC(OCc2ccc3ccccc3c2)C(NC(=O)CNC(=N)N)C(OCc2ccc(-c3ccccc3)cc2)C1O (centres unmarked) [compound 242] | − (“−” indicates less than 50% inhibition at 10 μM) | − (“−” indicates less than 50% inhibition at 10 μM) | + (“+” indicates greater than 50% inhibition at 10 μM) | + (“+” indicates greater than 50% inhibition at 10 μM) | + (“+” indicates greater than 50% inhibition at 10 μM) | − (“−” indicates less than 50% inhibition at 10 μM) | − (“−” indicates less than 50% inhibition at 10 μM) | + (“+” indicates greater than 50% inhibition at 10 μM) | − (“−” indicates less than 50% inhibition at 10 μM) | − (“−” indicates less than 50% inhibition at 10 μM) | − (“−” indicates less than 50% inhibition at 10 μM) | – |
| NCCC(=O)NC1C(OCc2ccccc2)OC(COCc2ccc(Cl)cc2)C(O)C1OCc1ccccc1 (centres unmarked) [compound 371] | – | – | – | – | – | – | – | – | – | – | – | A1: inhibition of radioligand binding, human δ-opioid (DOP) (Human δ-opioid (DOP)): − (“−” indicates less than 50% inhibition at 10 μM); A2: inhibition of radioligand binding, human κ-opioid (KOP) (Human κ-Opioid (KOP)): − (“−” indicates less than 50% inhibition at 10 μM); A3: inhibition of radioligand binding, human melanocortin (MC3) (Human Melanocortin (MC3)): − (“−” indicates less than 50% inhibition at 10 μM); A4: inhibition of radioligand binding, human melanocortin (MC4) (Human Melanocortin (MC4)): − (“−” indicates less than 50% inhibition at 10 μM); A5: inhibition of radioligand binding, human melanocortin (MC5) (Human melanocortin (MC5)): − (“−” indicates less than 50% inhibition at 10 μM); A6: inhibition of radioligand binding, human melanin-concentrating hormone (MCH1) ([1]; [125I]-S36057): − (“−” indicates less than 50% inhibition at 10 μM); A7: inhibition of radioligand binding, human μ-opioid (MOP) (Human μ-opioid (MOP)): − (“−” indicates less than 50% inhibition at 10 μM); A8: inhibition of radioligand binding, human neurokinin (NK1) (Human neurokinin (NK1)): + (“+” indicates greater than 50% inhibition at 10 μM); A9: inhibition of radioligand binding, human neuropeptide Y (NPY-Y1) [2]: − (“−” indicates less than 50% inhibition at 10 μM); A10: inhibition of radioligand binding, human opioid (ORL1) (Human opioid (ORL1)): − (“−” indicates less than 50% inhibition at 10 μM); A11: inhibition of radioligand binding, mouse urotensin (mUR2) (Mouse urotensin (mUR2)): − (“−” indicates less than 50% inhibition at 10 μM) |
| NCCCC(=O)NC1C(OCc2ccc3ccccc3c2)OC(COCc2ccc3ccccc3c2)C(O)C1OCc1ccc2ccccc2c1 (single isomer, unassigned) [compound 461] | – | – | – | – | – | – | – | – | – | – | – | A1: inhibition of radioligand binding (Human δ-opioid (DOP); human DOP membranes): − (“−” indicates less than 50% inhibition at 10 μM); A2: inhibition of radioligand binding (Human κ-Opioid (KOP); human KOP membranes): − (“−” indicates less than 50% inhibition at 10 μM); A3: inhibition of radioligand binding (Human Melanocortin (MC3); human MC3 membranes, 10 µM): + (“+” indicates greater than 50% inhibition at 10 μM); A4: inhibition of radioligand binding (Human Melanocortin (MC4); human MC4 membranes, 10 µM): + (“+” indicates greater than 50% inhibition at 10 μM); A5: inhibition of radioligand binding (Human melanocortin (MC5); human MC5 membranes): + (“+” indicates greater than 50% inhibition at 10 μM); A6: inhibition of radioligand binding ([1]; [125I]-S36057, human MCH1 membranes, 10 µM): + (“+” indicates greater than 50% inhibition at 10 μM); A7: inhibition of radioligand binding (Human μ-opioid (MOP); human MOP membranes, 10 µM): + (“+” indicates greater than 50% inhibition at 10 μM); A8: inhibition of radioligand binding (Human neurokinin (NK1); human NK1 membranes): + (“+” indicates greater than 50% inhibition at 10 μM); A9: inhibition of radioligand binding ([2]; human NPY-Y1 membranes): − (“−” indicates less than 50% inhibition at 10 μM); A10: inhibition of radioligand binding (Human opioid (ORL1); human ORL1 membranes, 10 µM): + (“+” indicates greater than 50% inhibition at 10 μM); A11: inhibition of radioligand binding (Mouse urotensin (mUR2); mouse mUR2 membranes): − (“−” indicates less than 50% inhibition at 10 μM) |
| COCC1OC(OCCc2ccccc2)C(NC(=O)CCCNC(=N)N)C(OCc2ccc3ccccc3c2)C1O (centres unmarked) [compound 229] | − (“−” indicates less than 50% inhibition at 10 μM) | − (“−” indicates less than 50% inhibition at 10 μM) | − (“−” indicates less than 50% inhibition at 10 μM) | + (“+” indicates greater than 50% inhibition at 10 μM) | + (“+” indicates greater than 50% inhibition at 10 μM) | + (“+” indicates greater than 50% inhibition at 10 μM) | − (“−” indicates less than 50% inhibition at 10 μM) | + (“+” indicates greater than 50% inhibition at 10 μM) | − (“−” indicates less than 50% inhibition at 10 μM) | − (“−” indicates less than 50% inhibition at 10 μM) | − (“−” indicates less than 50% inhibition at 10 μM) | – |
